Measured values published in ChEMBL document CHEMBL4043105, “Design and synthesis of potent and orally active GPR4 antagonists with modulatory effects on nociception, inflammation, and angiogenesis” (Bioorg Med Chem, 2017).

Assays:
Rattus norvegicus [1] = organism: Rattus norvegicus; settings: in vivo, po, 3 mg/kg
Rattus norvegicus [2] = organism: Rattus norvegicus; settings: in vivo, po, 3 mg/kg; remark: listed apart in the source
in vivo [3] = settings: Sprague-Dawley, rat, iv, 1 mg/kg
in vivo [4] = settings: Sprague-Dawley, rat, iv, 1 mg/kg; remark: listed apart in the source
in vivo [5] = settings: Sprague-Dawley, rat, po, 3 mg/kg

Q: For `CCc1nc2c(C)cc(C)nc2n1Cc1ccc(/C=C/CN2CCN(C(C)C)CC2)cc1`, which AUC/dose (Rattus norvegicus [1]) is on record?
A: 2196 µg·min/mL

Q: And the Cmax/dose (Rattus norvegicus [2])?
A: 193 nM

Q: And the clearance (in vivo [3])?
A: 15 mL/min/kg

Q: What about the half-life (in vivo [4]) of the same compound?
A: 5.6 h

Q: And the bioavailability (in vivo [5])?
A: 86%
